The values below come from article PMC3058116 (Therapeutic drug monitoring, 2011).

A value given as a limit tells only on which side of the number the result lay.

Broadly, the CL/F is the apparent clearance, not corrected for the fraction that reaches the circulation.

A short description of series [1]: Population pharmacokinetic analysis. Type of series: in vivo, HIV-infected Thai patients.
For series [2] the following is noted: cited from earlier work.
Setting [3] is: indinavir model, bootstrap median.
[4] abbreviates: indinavir model, final model estimate.

`CC(C)(C)NC(=O)[C@@H]1CN(Cc2cccnc2)CCN1C[C@@H](O)C[C@@H](Cc1ccccc1)C(=O)N[C@H]1c2ccccc2C[C@H]1O` [IDV, Indinavir]: in series [1] (setting [3]), the “Inter-individual variability IIV (CL/F)” value is recorded as 0.29; the “Inter-individual variability IIV (Ktr)” value worked out at 0.352; the “Ktr (= Ka within a transit model)” value was determined as 2.37 h⁻¹; the “Residual variability, proportional σ (IDV 400 mg)” value was 0.42. For the same compound, the “Residual variability, proportional σ (IDV 600 mg)” value in series [1] (setting [3]) is 0.29. In addition, in series [1] (setting [4]), the “Inter-individual variability IIV (CL/F)” value was 0.30; the “Inter-individual variability IIV (Ktr)” value is 0.38; the “Ktr (= Ka within a transit model)” value was 2.32 h⁻¹; the “Residual variability, proportional σ (IDV 400 mg)” value was 0.42. In addition, the “Residual variability, proportional σ (IDV 600 mg)” value in series [1] (setting [4]) is recorded as 0.29. The “Inter-individual variability IIV (Vd/F)” value in series [1] (indinavir model, final model, ω^2(V/F) = θpV/F × ω^2(CL/F)) was determined as 0.23. Besides, in series [1] (indinavir, final population estimate), the “interindividual variability of CL/F” value is 30%. Also, the “indinavir AUC associated with an increased risk of developing nephrotoxicity” value in series [2] (Thai patients receiving IDV/r 800/100 mg twice daily) is greater than 60000 µg·h/mL. Also, the “indinavir CL/F higher in male patients compared to female patients” value in series [2] (after adjusting for concomitant ritonavir use) is 30%. Moreover, the “indinavir bioavailability higher in female patients than in males” value in series [2] (analysis including only nine women) is 48%.
For `CC(C)c1nc(CN(C)C(=O)N[C@H](C(=O)N[C@@H](Cc2ccccc2)C[C@H](O)[C@H](Cc2ccccc2)NC(=O)OCc2cncs2)C(C)C)cs1` [RTV, ritonavir], in series [1] (both, human, in vivo), the “Residual variability σ (Proportional)” value is 0.36, the “interindividual variability of CL/F” value was determined as 48%, the “interindividual variability of Vd/F” value stood at 45% and the “θIDVDOSE-600mg (factor on ritonavir CL/F)” value worked out at 0.78. Moreover, the “θSEX-Female (factor on ritonavir CL/F)” value in series [1] (both, human, in vivo) stood at 0.77. The compound further displayed a CL/F in series [1] (human, in vivo) of 10.1 L/h. In series [1] (human, in vivo, 100 mg), this compound returned a CL/F of 10.1 L/h.
